Source: doi:10.1101/2024.07.23.604814v1 (biorxiv, 2024)

molecular target: T1, mouse sEH (Mus musculus, UniProt P34914); experiment: fluorogenic substrate hydrolase assay; type: biochemical; conditions: recombinant purified enzyme, average of triplicates
T1 sequence (P34914 1-554): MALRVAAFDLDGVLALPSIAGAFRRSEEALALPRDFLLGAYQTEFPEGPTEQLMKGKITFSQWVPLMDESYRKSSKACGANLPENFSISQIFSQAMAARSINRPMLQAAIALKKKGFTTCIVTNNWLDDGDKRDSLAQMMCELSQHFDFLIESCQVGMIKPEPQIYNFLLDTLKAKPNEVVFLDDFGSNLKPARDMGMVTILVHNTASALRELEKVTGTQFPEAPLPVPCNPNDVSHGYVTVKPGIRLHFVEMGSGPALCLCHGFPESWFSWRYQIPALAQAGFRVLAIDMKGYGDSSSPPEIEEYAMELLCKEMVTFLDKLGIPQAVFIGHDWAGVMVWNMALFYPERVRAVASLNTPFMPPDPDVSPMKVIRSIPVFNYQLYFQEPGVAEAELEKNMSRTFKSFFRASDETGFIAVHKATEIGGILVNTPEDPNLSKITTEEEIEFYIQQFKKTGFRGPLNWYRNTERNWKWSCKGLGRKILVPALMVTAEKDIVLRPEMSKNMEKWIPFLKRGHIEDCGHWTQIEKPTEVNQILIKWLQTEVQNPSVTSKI

`O=C(COc1cccc2c1C(=O)N(C1CCC(=O)NC1=O)C2=O)NCCOCCOCCOCCOCCNC(=O)c1ccc(O[C@H]2CC[C@H](NC(=O)Nc3ccc(OC(F)(F)F)cc3)CC2)cc1` (stereo partly drawn) [1a, compound 1a] was tested. Which IC50 did it give?
Its IC50 is 4 nM.

With `O=C1CCC(N2Cc3c(NCCOCCOCCOCCNC(=O)c4ccc(O[C@H]5CC[C@H](NC(=O)Nc6ccc(OC(F)(F)F)cc6)CC5)cc4)cccc3C2=O)C(=O)N1` (stereo partly drawn) [compound 1] as the molecule, how does the IC50 read?
The IC50 was 1.6 nM.

Which IC50 does the source give for `O=C1CCC(N2C(=O)c3ccc(NCCOCCOCCOCCOCCNC(=O)c4ccc(O[C@H]5CC[C@H](NC(=O)Nc6ccc(OC(F)(F)F)cc6)CC5)cc4)cc3C2=O)C(=O)N1` (stereo partly drawn) [compound 2] here?
Its IC50 is 0.64 nM.

How did the IC50 turn out when `O=C(COc1ccc(C2CCC(=O)NC2=O)cc1)NCCOCCOCCOCCOCCNC(=O)c1ccc(O[C@H]2CC[C@H](NC(=O)Nc3ccc(OC(F)(F)F)cc3)CC2)cc1` (stereo partly drawn) [compound 3] was run?
The IC50 was 4.7 nM.

Which IC50 does the source give for `O=C(COc1ccc(N2CCC(=O)NC2=O)cc1)NCCOCCOCCOCCOCCNC(=O)c1ccc(O[C@H]2CC[C@H](NC(=O)Nc3ccc(OC(F)(F)F)cc3)CC2)cc1` [compound 4] here?
The IC50 was 6 nM.

For `Cc1ccc(C(=O)NCCOCCOCCOCCOCCNC(=O)c2ccc(O[C@H]3CC[C@H](NC(=O)Nc4ccc(OC(F)(F)F)cc4)CC3)cc2)cc1N1CCC(=O)NC1=O` [compound 5], which IC50 is on record?
The IC50 was 9.3 nM.

Which IC50 does the source give for `O=C1CCC(N2C(=O)c3cccc(NCCCCCC(=O)N4CCC(NC(=O)Nc5ccc(OC(F)(F)F)cc5)CC4)c3C2=O)C(=O)N1` (stereo not drawn) [compound 9] here?
The IC50 was 1.4 nM.

For `O=C1CCC(N2C(=O)c3cccc(NCCOCCOCCC(=O)N4CCC(NC(=O)Nc5ccc(OC(F)(F)F)cc5)CC4)c3C2=O)C(=O)N1` (stereo not drawn) [compound 10], which IC50 is on record?
The IC50 was 3 nM.

`Cc1ncsc1-c1ccc(CNC(=O)[C@@H]2C[C@@H](O)CN2C(=O)[C@@H](NC(=O)CCCCCCC(=O)N2CCC(NC(=O)Nc3ccc(OC(F)(F)F)cc3)CC2)C(C)(C)C)cc1` [compound 12] was tested. Which IC50 did it give?
Its IC50 is 3.1 nM.
